From ChEMBL document CHEMBL5620422, “Design, synthesis, and biological evaluation of a series of new anthraquinone derivatives as anti-ZIKV agents” (Eur J Med Chem, 2023)
Active and inactive are the calls of the source. The rule behind the calls is not given here.

Experiments:
Zika virus [1] = test: Antiviral activity against ZIKV ZG-01 infected in Ifnar1 knockout C57BL/6 mouse assessed as reduction in neuronal necrosis by measuring karyolysis at 20 mg/kg, iv administered daily for 7 days and measured upto 12 dpi by H and E staining based analysis; format: functional, organism-based; settings: time <= 12.0 day
Zika virus [2] = test: Antiviral activity against ZIKV ZG-01 infected in JEG-3 cells assessed as reduction in number of viral positive cells at 5 uM by immunofluorescence assay; format: functional, organism-based
Zika virus [3] = test: Antiviral activity against ZIKV ZG-01 infected in JEG-3 cells assessed as reduction in viral envelope protein level at 1 to 20 uM after 48 hrs by Western blot assay; format: functional, organism-based; settings: dose 1-20 µM
HEK293T = test: Inhibition of ZIKV RNA polymerase NS5 expressed in HEK293T cells co-transfected with Gluc-reporter gene at 20 uM incubated for 24 hrs by Dual-glo luminescence assay; format: cell-based; settings: Zika virus
[4] = Cytotoxicity against human A549 cells assessed as reduction in cell viability incubated for 48 hrs by MTT assay; format: toxicity, cell-based
Zika virus [5] = test: Antiviral activity against ZIKV ZG-01 infected in human JEG-3 cells assessed as reduction in cell pyroptosis; format: functional, organism-based
Zika virus [6] = test: Antiviral activity against ZIKV ZG-01 infected in human JEG-3 cells assessed as reduction in IL-1beta release at 1 to 5 uM by ELISA; format: functional, organism-based; settings: dose 1-5 µM
SNB-19 [7] = test: Antiinflammatory activity in human SNB-19 cells assessed as reduction in IFNgamma expression by RT-PCR analysis; format: functional, cell-based
Zika virus [8] = test: Antiviral activity against ZIKV ZG-01 infected in SNB-19 cells assessed as reduction in viral envelope protein expression at 5 uM by immunofluorescence assay; format: functional, organism-based
Zika virus [9] = test: Antiviral activity against ZIKV ZG-01 infected in human JEG-3 cells assessed as reduction in TNFalpha release at 1 to 5 uM by ELISA; format: functional, organism-based; settings: dose 1-5 µM
Zika virus [10] = test: Antiviral activity against ZIKV ZG-01 infected in A549 cells assessed as reduction in viral replication at 20 uM preincubated for 1 hr followed by replacement with fresh media containing compound for 48 hrs by RT-PCR analysis; format: functional; design: scale not given: the % may be the effect or the level left; settings: time 49 hrs
Zika virus [11] = test: Antiviral activity against ZIKV ZG-01 infected in human SNB-19 cells assessed as reduction in IL-1beta expression at 1 to 5 uM by RT-PCR analysis; format: functional, organism-based; settings: dose 1-5 µM
Zika virus [12] = test: Antiviral activity against ZIKV ZG-01 infected in JEG-3 cells assessed as reduction in viral envelope protein expression at 5 uM by immunofluorescence assay; format: functional, organism-based
SNB-19 [13] = test: Antiinflammatory activity in human SNB-19 cells assessed as reduction in IL-1beta expression by RT-PCR analysis; format: functional, cell-based
Zika virus [14] = test: Antiviral activity against ZIKV ZG-01 infected in human SNB-19 cells assessed as reduction in GSDMD cleavage by Western blot analysis; format: functional, organism-based; settings: dose 1-20 µM
Zika virus [15] = test: Antiviral activity against ZIKV ZG-01 infected in human SNB-19 cells assessed as reduction in TNFalpha release at 1 to 5 uM by ELISA; format: functional, organism-based; settings: dose 1-5 µM
Zika virus [16] = test: Antiviral activity against ZIKV ZG-01 infected in human JEG-3 cells assessed as reduction in GSDMD cleavage by Western blot analysis; format: functional, organism-based; settings: dose 1-20 µM
Zika virus [17] = test: Antiviral activity against ZIKV ZG-01 infected in human SNB-19 cells assessed as reduction in cell pyroptosis; format: functional, organism-based
Zika virus [18] = test: Antiviral activity against ZIKV ZG-01 infected in human JEG-3 cells assessed as reduction in GSDME cleavage by Western blot analysis; format: functional, organism-based; settings: dose 1-20 µM
Zika virus [19] = test: Antiviral activity against ZIKV ZG-01 infected in human SNB-19 cells assessed as reduction in IL-6 expression at 1 to 5 uM by RT-PCR analysis; format: functional, organism-based; settings: dose 1-5 µM
Zika virus [20] = test: Antiviral activity against ZIKV ZG-01 infected in Vero cells preincubated for 1 hr followed by replacement with fresh media containing compound for 48 hrs by crystal violet staining based plaque assay; format: functional
[21] = Toxicity in Ifnar1 knockout C57BL/6 mouse assessed as movement disorders at 60 mg/kg administered for 7 days; format: organism-based; settings: in vivo, 168 h, time 7 day
Zika virus [22] = test: Antiviral activity against ZIKV ZG-01 infected in human JEG-3 cells assessed as reduction in IFNgamma expression at 1 to 5 uM by RT-PCR analysis; format: functional, organism-based; settings: dose 1-5 µM
Zika virus [23] = test: Antiviral activity against ZIKV ZG-01 infected in human SNB-19 cells assessed as reduction in TNFalpha expression at 1 to 5 uM by RT-PCR analysis; format: functional, organism-based; settings: dose 1-5 µM
Zika virus [24] = test: Antiviral activity against ZIKV ZG-01 infected in Ifnar1 knockout C57BL/6 mouse assessed as increase in animal survival at 20 mg/kg, iv administered daily for 7 days; format: functional, organism-based; settings: time 7.0 day
Zika virus [25] = test: Antiviral activity against ZIKV ZG-01 infected in human JEG-3 cells assessed as reduction in IL-1beta expression at 1 to 5 uM by RT-PCR analysis; format: functional, organism-based; settings: dose 1-5 µM
Zika virus [26] = test: Antiviral activity against ZIKV ZG-01 infected in human JEG-3 cells assessed as reduction in LDH release incubated for 36 hrs; format: functional, organism-based; settings: dose 1-5 µM
JEG-3 [27] = test: Antiinflammatory activity in human JEG-3 cells assessed as reduction in IL-6 expression by RT-PCR analysis; format: functional, cell-based
Zika virus [28] = test: Antiviral activity against ZIKV ZG-01 infected in SNB-19 cells assessed as reduction in viral replication at 20 uM preincubated for 1 hr followed by replacement with fresh media containing compound for 48 hrs by RT-PCR analysis; format: functional; design: scale not given: the % may be the effect or the level left; settings: time 49 hrs
[29] = Cytotoxicity against african green monkey Vero cells assessed as reduction in cell viability incubated for 48 hrs by MTT assay; format: toxicity, cell-based; settings: chlorocebus sabaeus
[30] = Cytotoxicity against human JEG-3 cells assessed as reduction in cell viability incubated for 48 hrs by MTT assay; format: toxicity, cell-based
Zika virus [31] = test: Antiviral activity against ZIKV ZG-01 infected in Ifnar1 knockout C57BL/6 mouse assessed as reduction in weight loss at 20 mg/kg, iv administered daily for 7 days and measured upto 12 dpi; format: functional, organism-based; settings: time <= 12.0 day
JEG-3 [32] = test: Antiinflammatory activity in human JEG-3 cells assessed as reduction in IL-1beta expression by RT-PCR analysis; format: functional, cell-based
NS5 = NS5 (Zika virus, UniProt A0A143MHK7); test: Binding affinity to ZIKV RdRP by SPR assay
Sequence of NS5 (A0A143MHK7 whole entry): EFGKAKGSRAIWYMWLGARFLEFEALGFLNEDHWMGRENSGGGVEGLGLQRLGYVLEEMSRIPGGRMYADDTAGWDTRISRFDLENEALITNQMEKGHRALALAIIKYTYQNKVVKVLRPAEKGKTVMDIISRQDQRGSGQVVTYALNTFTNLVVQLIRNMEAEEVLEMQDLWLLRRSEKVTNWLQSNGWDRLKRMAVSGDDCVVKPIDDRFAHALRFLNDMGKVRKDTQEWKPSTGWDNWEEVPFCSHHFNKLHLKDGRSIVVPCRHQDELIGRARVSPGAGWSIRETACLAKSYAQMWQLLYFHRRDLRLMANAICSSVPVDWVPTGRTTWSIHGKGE

Zika virus [33] = test: Antiviral activity against ZIKV ZG-01 infected in human SNB-19 cells assessed as reduction in GSDME cleavage by Western blot analysis; format: functional, organism-based; settings: dose 1-20 µM
Zika virus [34] = test: Antiviral activity against ZIKV ZG-01 infected in Ifnar1 knockout C57BL/6 mouse assessed as reduction in astrocytes activation by measuring GFAP expression at 20 mg/kg, iv administered daily for 7 days by immunohistochemistry analysis; format: functional, organism-based; settings: time 7.0 day
Zika virus [35] = test: Antiviral activity against ZIKV ZG-01 infected in human JEG-3 cells assessed as reduction in TNFalpha expression at 1 to 5 uM by RT-PCR analysis; format: functional, organism-based; settings: dose 1-5 µM
Zika virus [36] = test: Antiviral activity against ZIKV ZG-01 infected in JEG-3 cells preincubated for 1 hr followed by replacement with fresh media containing compound for 48 hrs by crystal violet staining based plaque assay; format: functional

Structure (SMILES): C[C@]1(O)CC2=C(C[C@@]1(C)O)C(=O)c1c(O)cc(N3CCC(c4ccccc4)CC3)c(O)c1C2=O
- Activity (Zika virus [1]): Active
- Activity (Zika virus [2]): Active
- Activity (Zika virus [3]): Active
- inhibition (HEK293T): Dose-Dependent Effect
- CC50 at 48 h [4]: > 50 µM
- Activity (Zika virus [5]): Active
- Activity (Zika virus [6]): Active
- Activity (SNB-19 [7]): inactive
- Activity (Zika virus [8]): Active
- Activity (Zika virus [9]): Active
- Activity (Zika virus [10]): 100%
- Activity (Zika virus [11]): Active
- Activity (Zika virus [12]): Active
- Activity (SNB-19 [13]): inactive
- Activity (Zika virus [14]): Dose-Dependent Effect
- Activity (Zika virus [15]): Active
- Activity (Zika virus [16]): Dose-Dependent Effect
- Activity (Zika virus [17]): Active
- Activity (Zika virus [18]): Dose-Dependent Effect
- Activity (Zika virus [19]): Active
- EC90 (Zika virus [20]; ZG-01, Vero, time 49 hrs): 6.4 µM
- Activity (Zika virus [20]; time 49.0 hrs): Dose-Dependent Effect
- Activity [21]: Non-Toxic
- Activity (Zika virus [22]): Active
- Activity (Zika virus [23]): Active
- Activity (Zika virus [24]): Active
- Activity (Zika virus [25]): Active
- Activity (Zika virus [26]): Dose-Dependent Effect
- Activity (JEG-3 [27]): inactive
- Activity (Zika virus [28]): 100%
- CC50 at 48 h [29]: 65.4 µM
- CC50 at 48 h [30]: 54.7 µM
- Activity (Zika virus [31]): Active
- Activity (JEG-3 [32]): inactive
- Kd (NS5): 10.4 µM
- Activity (Zika virus [33]): Dose-Dependent Effect
- Activity (Zika virus [34]): Active
- Activity (Zika virus [35]): Active
- EC90 (Zika virus [36]; ZG-01, JEG-3, time 49 hrs): 6.4 µM
- Activity (Zika virus [36]; time 49.0 hrs): Dose-Dependent Effect
